Test results: ChEMBL document CHEMBL1158211, “Cyclic peptides from higher plants. 24.1 yunnanin C, a novel cyclic heptapeptide from Stellaria yunnanensis” (J Nat Prod, 1996)
≈ marks a conversion by molar mass, not a printed value. Residues, ends and D or L forms follow the SMILES beside them.

Tested on: P388
Experiment: Cytotoxicity against mouse P388 cells after 48 hrs by MTT assay
Assay type: functional, cell-based
Conditions: P388, 48 h

O=C1CNC(=O)[C@H](Cc2ccc(O)cc2)NC(=O)CNC(=O)[C@@H]2CCCN2C(=O)[C@H](Cc2ccccc2)NC(=O)[C@@H]2CCCN2C(=O)CN1 [YUNNANIN A] (HELM PEPTIDE1{F.P.G.Y.G.G.P}$PEPTIDE1,PEPTIDE1,1:R1-7:R2$$$V2.0)
IC50: 2.1 µg/mL (≈ 3.11 µM)

CC[C@H](C)[C@@H]1NC(=O)CNC(=O)[C@@H]2CCCN2C(=O)[C@H](CO)NC(=O)[C@H](Cc2ccc(O)cc2)NC(=O)[C@H](Cc2ccccc2)NC(=O)CNC1=O [YUNNANIN C] (HELM PEPTIDE1{F.Y.S.P.G.I.G}$PEPTIDE1,PEPTIDE1,1:R1-7:R2$$$V2.0)
IC50: 2.2 µg/mL (≈ 3.05 µM)
